Bounds are passed on as bounds.

The values that follow come from patent US20140023611A1 (priority 2010, published 2014).

This experiment deals with Uptake of Phosphorus from the Intestine. Kind of experiment: In vivo co-dosing in chow (urine P out / P consumed). As to conditions: Rattus norvegicus, feed or water, rats, compound in chow, read-out: Mean % inhibition Urine Pout/P consumed; for inhibition in vivo at 100 mg/kg/day: mean drug dose 100 mg/kg/day; for inhibition in vivo at 120 mg/kg/day: mean drug dose 120 mg/kg/day; for inhibition in vivo at 50 mg/kg/day: mean drug dose 50 mg/kg/day. A digest of the protocol:
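Male 7-week-old rats were fed a synthetic diet (0.6% P, 0.6% Ca) for 4 days, then housed in metabolic cages with compound in chow at 1.3 mg/g (nominal 100 mg/kg/day). Urinary P was measured by ion chromatography over 24–96 h and related to dietary P consumed. Percentage inhibition was calculated against no-drug controls.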

For the compound `O=C(O)CCOCCOCCOCCOCCSCc1cccc(C(=O)Nc2ccc(N3CCCCC3)cc2-c2cc(C(=O)N[C@H]3CCCc4ccccc43)ccn2)c1` [Example 142, 1-(3-{[4-(piperidin-1-yl)-2-(4-{[(1S)-1,2,3,4-tetrahydronaphthalen-1-yl]carbamoyl}pyridin-2-yl)phenyl]carbamoyl}phenyl)-5,8,11,14-tetraoxa-2-thiaheptadecan-17-oic acid], the inhibition in vivo at 100 mg/kg/day was not above 10%.

With `CCN(CC)c1ccc(NC(=O)c2cccc(CSc3cccc(CC(=O)N(C)CCOCCOCCOCCC(=O)O)c3)c2)c(-c2cc(C(=O)NCc3cccc(C(F)(F)F)c3)ccn2)c1` [Example 144, 3-(2-(2-(2-(2-(3-(3-(4-(diethylamino)-2-(4-(3-(trifluoromethyl)benzylcarbamoyl)pyridin-2-yl)phenylcarbamoyl)benzylthio)phenyl)-N-methylacetamido)ethoxy)ethoxy)ethoxy)propanoic acid], the inhibition in vivo at 100 mg/kg/day was not above 10%.

As to `CCN(CC)c1ccc(NC(=O)c2cccc(CSCCOCCOCCOCCOCCOCCOCCOCCOCCC(=O)O)c2)c(-c2cc(C(=O)N[C@H]3CCCc4ccccc43)ccn2)c1` [Example 161, (S)-1-(3-(4-(diethylamino)-2-(4-(1,2,3,4-tetrahydronaphthalen-1-ylcarbamoyl)pyridin-2-yl)phenylcarbamoyl)phenyl)-5,8,11,14,17,20,23,26-octaoxa-2-thianonacosan-29-oic acid], the inhibition in vivo at 120 mg/kg/day is not above 10%.

In the case of `CCN(CC)c1ccc(NC(=O)c2cccc(CSCCOCCOCCOCCOCCC(=O)O)c2)c(-c2cc(C(=O)NCc3cccc(C(F)(F)F)c3)ccn2)c1` [Example 162, 1-(3-(4-(diethylamino)-2-(4-(3-(trifluoromethyl)benzylcarbamoyl)pyridin-2-yl)phenylcarbamoyl)phenyl)-5,8,11,14-tetraoxa-2-thiaheptadecan-17-oic acid], the inhibition in vivo at 100 mg/kg/day is 10 to 30%.

Turning to `CCN(CC)c1ccc(NC(=O)c2cccc(CSCCOCCOCCOCCOCCOCCOCCOCCOCCC(=O)O)c2)c(-c2cc(C(=O)NCc3cccc(C(F)(F)F)c3)ccn2)c1` [Example 166, 1-(3-(4-(diethylamino)-2-(4-(3-(trifluoromethyl)benzylcarbamoyl)pyridin-2-yl)phenylcarbamoyl)phenyl)-5,8,11,14,17,20,23,26-octaoxa-2-thianonacosan-29-oic acid], the inhibition in vivo at 120 mg/kg/day was 10 to 30%.

With `O=C(O)CCOCCOCCOCCNC(=O)c1cccc2c1ccn2Cc1cccc(C(=O)Nc2ccc(N3CCCCC3)cc2-c2cc(C(=O)N[C@H]3CCCc4ccccc43)ccn2)c1` [Example 181, (S)-1-oxo-1-(1-(3-(4-(piperidin-1-yl)-2-(4-(1,2,3,4-tetrahydronaphthalen-1-ylcarbamoyl)pyridin-2-yl)phenylcarbamoyl)benzyl)-1H-indol-4-yl)-5,8,11-trioxa-2-azatetradecan-14-oic acid], the inhibition in vivo at 120 mg/kg/day is not above 10%.

`CCN(CC)c1ccc(NC(=O)c2cccc(C(=O)N(C)CCOCCOCCOCCC(=O)O)c2)c(-c2cc(C(=O)NCc3cccc(C(F)(F)F)c3)ccn2)c1` [Example 188, 1-(3-((4-(diethylamino)-2-(4-((3-(trifluoromethyl)benzyl)carbamoyl)pyridin-2-yl)phenyl)carbamoyl)phenyl)-2-methyl-1-oxo-5,8,11-trioxa-2-azatetradecan-14-oic acid]: under “mean drug dose 110 mg/kg/day”, the inhibition in vivo at 110 mg/kg/day lay within 10 to 30%.

Take `CCCN(CCC)c1ccc(NC(=O)c2cccc(COCCOCCOCCOCCOCCOCCOCCOCCOC)c2)c(-c2cc(C(=O)NCc3cccc(C(F)(F)F)c3)ccn2)c1` [Example 200, 2-(2-(3-(2,5,8,11,14,17,20,23,26-nonaoxaheptacosyl)benzamido)-5-(dipropylamino)phenyl)-N-(3-(trifluoromethyl)benzyl)isonicotinamide]: the inhibition in vivo at 100 mg/kg/day fell in the range of 10 to 30%.

On to `CCN(CC)c1ccc(NC(=O)c2cccc(CCCOCCOCCOCCOCCC(=O)O)c2)c(-c2cc(C(=O)NCc3cccc(C(F)(F)F)c3)ccn2)c1` [Example 251, 16-(3-(4-(diethylamino)-2-(4-(3-(trifluoromethyl)benzylcarbamoyl)pyridin-2-yl)phenylcarbamoyl)phenyl)-4,7,10,13-tetraoxahexadecan-1-oic acid], for which the inhibition in vivo at 50 mg/kg/day was not above 10%.

Consider `O=C(O)CCOCCOCCOCCOCCCc1cccc(C(=O)Nc2ccc(N3CCCCC3)cc2-c2cc(C(=O)N[C@H]3CCCc4ccccc43)ccn2)c1` [Example 252, 3-(2-(2-(2-(3-(3-((2-(4-(((S)-1,2,3,4-tetrahydronaphthalen-1-yl)carbamoyl)pyridin-2-yl)-4-(piperidin-1-yl)phenyl)carbamoyl)phenyl)propoxy)ethoxy)ethoxy)ethoxy)propanoic acid], for which the inhibition in vivo at 90 mg/kg/day (mean drug dose 90 mg/kg/day) was 10 to 30%.

For `CCN(CC)c1ccc(NC(=O)c2cccc(CCCOCCOCCOCCOCCOCCOCCOCCOCCOC)c2)c(-c2cc(C(=O)N[C@H]3CCCc4ccccc43)ccn2)c1` [Example 261, (S)-2-(2-(3-(2,5,8,11,14,17,20,23,26-nonaoxanonacosan-29-yl)benzamido)-5-(diethylamino)phenyl)-N-(1,2,3,4-tetrahydronaphthalen-1-yl)isonicotinamide], the inhibition in vivo at 100 mg/kg/day is 10 to 30%.

Take `CCN(CC)c1ccc(NC(=O)c2cccc(CSCCOCCOCCOCCOCCOCCOCCOCCOC)c2)c(-c2cc(C(=O)NCc3cccc(C(F)(F)F)c3)ccn2)c1` [Example 265, 2-(2-(3-(2,5,8,11,14,17,20,23-octaoxa-26-thiaheptacosan-27-yl)benzamido)-5-(diethylamino)phenyl)-N-(3-(trifluoromethyl)benzyl)isonicotinamide]: the inhibition in vivo at 120 mg/kg/day was not above 10%.

In the case of `CCN(CC)c1ccc(NC(=O)c2cccc(CCCOCCOCCOCCOCCOCCOCCOCCOCCOC)c2)c(-c2cc(C(=O)NCc3cccc(C(F)(F)F)c3)ccn2)c1` [Example 269, 2-(2-(3-(2,5,8,11,14,17,20,23,26-nonaoxanonacosan-29-yl)benzamido)-5-(diethylamino)phenyl)-N-(3-(trifluoromethyl)benzyl)isonicotinamide], the inhibition in vivo at 100 mg/kg/day was not above 10%.

In the case of `CCN(CC)c1ccc(NC(=O)c2cccc(CCCOCCOCCOCCOCCNS(=O)(=O)c3ccc(C(=O)N(CCOC)CCOCCOCCOCCOCCOCCOCCOC)cc3)c2)c(-c2cc(C(=O)NCc3cccc(C(F)(F)F)c3)ccn2)c1` [Example 272, 2-(2-(3-(1-(4-(2,5,8,11,14,17,20-heptaoxadocosan-22-yl(2-methoxyethyl)carbamoyl)phenylsulfonamido)-3,6,9,12-tetraoxapentadecan-15-yl)benzamido)-5-(diethylamino)phenyl)-N-(3-(trifluoromethyl)benzyl)isonicotinamide], the inhibition in vivo at 50 mg/kg/day was not above 10%.

As to `CCN(CC)c1ccc(NC(=O)c2cccc(CSCCOCCOCCOCCOCCOCCOCCOCCOC)c2)c(-c2cc(C(=O)N[C@H]3CCCc4ccccc43)ccn2)c1` [Example 286, (S)-2-(2-(3-(2,5,8,11,14,17,20,23-octaoxa-26-thiaheptacosan-27-yl)benzamido)-5-(diethylamino)phenyl)-N-(1,2,3,4-tetrahydronaphthalen-1-yl)isonicotinamide], the inhibition in vivo at 130 mg/kg/day (mean drug dose 130 mg/kg/day) was in the range of 10 to 30%.
